Measurements taken from ChEMBL document CHEMBL1143409, “Efflux-related resistance to norfloxacin, dyes, and biocides in bloodstream isolates of Staphylococcus aureus” (2007).
Values after ≈ are worked out from the molar mass of the structure shown.

Columns and labels:
[1] = test system: Staphylococcus aureus; assay: Inhibition of multidrug-resistant efflux pump in methicillin-resistant Staphylococcus aureus effluxing isolate assessed as fold reduction of chlorehexidin MIC at 10 ug/ml by microdilution method; type: functional
[2] = test system: Staphylococcus aureus; assay: Antimicrobial activity against methicillin-resistant Staphylococcus aureus effluxing isolate; type: functional
[3] = test system: Staphylococcus aureus; assay: Inhibition of multidrug-resistant efflux pump in methicillin-resistant Staphylococcus aureus effluxing isolate assessed as fold reduction of dequalinium MIC at 10 ug/ml by microdilution method; type: functional
[4] = test system: Staphylococcus aureus; assay: Inhibition of multidrug-resistant efflux pump in methicillin-resistant Staphylococcus aureus effluxing isolate assessed as fold reduction of acriflavine MIC at 10 ug/ml by microdilution method; type: functional
[5] = test system: Staphylococcus aureus; assay: Inhibition of multidrug-resistant efflux pump in methicillin-resistant Staphylococcus aureus effluxing isolate assessed as fold reduction of ethidium-bromide MIC at 10 ug/ml by microdilution method; type: functional
[6] = test system: Staphylococcus aureus; assay: Inhibition of multidrug-resistant efflux pump in methicillin-resistant Staphylococcus aureus effluxing isolate assessed as fold reduction of Norfloxacin MIC at 10 ug/ml by microdilution method; type: functional
[7] = test system: Staphylococcus aureus; assay: Inhibition of multidrug-resistant efflux pump in methicillin-resistant Staphylococcus aureus effluxing isolate assessed as fold reduction of tetraphenylphosphonium bromide MIC at 10 ug/ml by microdilution method; type: functional
[8] = test system: Staphylococcus aureus; assay: Inhibition of multidrug-resistant efflux pump in methicillin-resistant Staphylococcus aureus effluxing isolate assessed as fold reduction of citramide MIC at 10 ug/ml by microdilution method; type: functional, organism-based

Molecule | MIC50 [2] [µg/mL] | MIC90 [2] [µg/mL] | other results
N=C(NCCCCCCNC(=N)NC(=N)Nc1ccc(Cl)cc1)NC(=N)Nc1ccc(Cl)cc1 [CHLORHEXIDINE] | 0.31 (≈ 0.613 µM) | 0.63 (≈ 1.25 µM) | fold change (FC) [1]: 8
Cc1cc(N)c2ccccc2[n+]1CCCCCCCCCC[n+]1c(C)cc(N)c2ccccc21.[Cl-].[Cl-] [DEQUALINIUM CHLORIDE] | 1.25 | 5 | fold change (FC) [3]: 4
C[n+]1c2cc(N)ccc2cc2ccc(N)cc21.[Cl-] [EUFLAVINE] | 12.5 | 50 | fold change (FC) [4]: 4
CC[n+]1c(-c2ccccc2)c2cc(N)ccc2c2ccc(N)cc21.[Br-] [HOMIDIUM BROMIDE] | 6.25 | 25 | fold change (FC) [5]: 8
CCn1cc(C(=O)O)c(=O)c2cc(F)c(N3CCNCC3)cc21 [NORFLOXACIN] | 12.5 (≈ 39.1 µM) | > 100 | fold change (FC) [6]: 4
[Br-].c1ccc([P+](c2ccccc2)(c2ccccc2)c2ccccc2)cc1 [TETRAPHENYLPHOSPHONIUM BROMIDE] | 25 | 50 | fold change (FC) [7]: 4
CETRIMIDE | 0.63 | 1.25 | fold change (FC) [8]: 4
